In US12024510B2, “Pyrazolopyridine-diamides, their use as insecticide and processes for preparing the same” (PI INDUSTRIES LTD., priority 2017, dated 2024):

Columns and labels:
Format in all cases: in vivo
[1] = test system: Spodoptera litura; assay: Spodoptera litura diet incorporation method; details: third instar larvae, dead and moribund combined, 96 h after release
Procedure: (§1) Test Solutions were Prepared According to the Procedure Described Herein Below (500 PPM):
(§2) • 1. Eppendorf Vortex mixer (ThermoMixer C) and 1.5 mL Eppendorf tubes • 2. Zirconia (Zirconium-Yttrium) beads having diameter of 0.8 to 1.0 mm • 3. Microscope • 4. Beaker 100 mL • 5. Micro-pipette Reagents: • 1. Surfactant Solution • 2. De-mineralized (DM) Water • 1. Weigh 10 mg of the compound of the present invention to be tested in an Eppendorf Tube. • 2. Add 200 mg of the Surfactant Solution into the tube. • 3. Add 600 mg of Zirconia beads into the above mixture. • 4. Fix the tube in Eppendorf Vortex mixer and start vortexing at 2000 rpm. • 5. Mix on Vortex mixer for 30 minutes. After 30 minutes, observe the sample over a microscope at 400× resolution. • 6. If the Maximum particle size is more than 5 μm or average particle size is more than 2 μm or the particle size distribution is uneven, continue vortexing for another 30 minutes and again check the particle size using the microscope. Continue till the average particle size is below 2 microns. • 7. When the required particle size is achieved, add 1.0 mL DM water into the tube, close the cap, shake the tube thoroughly and transfer the contents, along with the beads, into a beaker. • 8. To rinse the tube, add another 1.0 mL of DM water into the tube, close the cap, shake well and transfer this into the same beaker. • 9. Repeat Step no. 8 one more time so that the tube is rinsed well and the compound of the present invention to be tested is transferred to the beaker. • 10. Add 16.8 mL of DM water into the beaker and stir well. • 11. The homogeneous dispersion can then be decanted into a glass vial, immediately, to separate the Zirconia beads. • 12. Immediately use this sample for biological testing. • 13. Further dilutions can be prepared by taking appropriate quantity of the aliquot of Step 10, immediately after stirring, and diluting as per requirement. The sample solution must be well mixed just before biological testing.
(§3) Diet incorporation method was used, in which semi-synthetic diet was incorporated into the test solution when the temperature is approximately 50° C. in the bioassay containers and stirred thoroughly for properly mixing and then was allowed to cool for 30 min. The solidified diet was cut into equal pieces, and then each piece was transferred in one cell in Bio-assay trays. A single third instar starved larva was released into each of these cells of bioassay trays and the tray was covered with the lid. The bio-assay trays were kept under laboratory conditions at a temperature of 25° C. and Relative Humidity of 70%. Observations on dead, moribund and live larvae were recorded at 96 h after the release of larvae. Percent mortality was calculated by combining dead and moribund larvae. The following compound numbers

[2] = test system: Plutella xylostella; assay: whole plant or invertebrate; details: foliar, cabbage leaf dip, second instar larvae, dead and moribund combined, 72 h after release
How it was run: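 Leaf-dip bioassay: second-instar larvae, singly, fed on cabbage leaves dipped 10 s in test dispersion (bead-milled, diluted with 0.01% Triton-X to test concentration) and dried 20 min. Held at 25 °C, 70% RH; % mortality counts dead and moribund at 72 h.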

[3] = test system: Helicoverpa armigera; assay: Helicoverpa armigera diet incorporation method; details: third instar larvae, dead and moribund combined, 96 h after release
Procedure: as §1, §2
as §3, with “which and” for “which”

Compound | mortality at 300 ppm [1] | mortality at 300 ppm [2] | mortality at 300 ppm [3]
CNC(=O)c1c(NC(=O)c2cc(Br)nn2-c2ncccc2Cl)c(C)cc2ccnn12 [Compound 1, 6-(3-bromo-1-(3-chloropyridin-2-yl)-1H-pyrazole-5-carboxamido)-N,5-dimethylpyrazolo[1,5-a]pyridine-7-carboxamide] | > 70% | > 70% | > 70%
CCNC(=O)c1c(NC(=O)c2cc(Br)nn2-c2ncccc2Cl)c(C)cc2ccnn12 [Compound 2, 6-(3-bromo-1-(3-chloropyridin-2-yl)-1H-pyrazole-5-carboxamido)-N-ethyl-5-methylpyrazolo[1,5-a]pyridine-7-carboxamide] | > 70% | > 70% | > 70%
Cc1cc2ccnn2c(C(=O)NCC2CC2)c1NC(=O)c1cc(Br)nn1-c1ncccc1Cl [Compound 3, 6-(3-bromo-1-(3-chloropyridin-2-yl)-1H-pyrazole-5-carboxamido)-N-(cyclopropylmethyl)-5-methylpyrazolo[1,5-a]pyridine-7-carboxamide] | > 70% | > 70% | > 70%
Cc1cc2ccnn2c(C(=O)NC(C)C)c1NC(=O)c1cc(Br)nn1-c1ncccc1Cl [Compound 4, 6-(3-bromo-1-(3-chloropyridin-2-yl)-1H-pyrazole-5-carboxamido)-N-isopropyl-5-methylpyrazolo[1,5-a]pyridine-7-carboxamide] | > 70% | > 70% | > 70%
Cc1cc2ccnn2c(C(=O)NC2CC2)c1NC(=O)c1cc(Br)nn1-c1ncccc1Cl [Compound 5, 6-(3-bromo-1-(3-chloropyridin-2-yl)-1H-pyrazole-5-carboxamido)-N-cyclopropyl-5-methylpyrazolo[1,5-a]pyridine-7-carboxamide] | > 70% | > 70% | > 70%
C=CCNC(=O)c1c(NC(=O)c2cc(Br)nn2-c2ncccc2Cl)c(C)cc2ccnn12 [Compound 6, N-allyl-6-(3-bromo-1-(3-chloropyridin-2-yl)-1H-pyrazole-5-carboxamido)-5-methylpyrazolo[1,5-a]pyridine-7-carboxamide] | > 70% | > 70% | > 70%
COCCNC(=O)c1c(NC(=O)c2cc(Br)nn2-c2ncccc2Cl)c(C)cc2ccnn12 [Compound 7, 6-(3-bromo-1-(3-chloropyridin-2-yl)-1H-pyrazole-5-carboxamido)-N-(2-methoxyethyl)-5-methylpyrazolo[1,5-a]pyridine-7-carboxamide] | > 70% | > 70% | > 70%
Cc1cc2ccnn2c(C(=O)NC(C)(C)C)c1NC(=O)c1cc(Br)nn1-c1ncccc1Cl [Compound 8, 6-(3-bromo-1-(3-chloropyridin-2-yl)-1H-pyrazole-5-carboxamido)-N-(tert-butyl)-5-methylpyrazolo[1,5-a]pyridine-7-carboxamide] | > 70% | > 70% | > 70%
CNC(=O)c1c(NC(=O)c2cc(OCC(F)(F)F)nn2-c2ncccc2Cl)c(C)cc2ccnn12 [Compound 9, 6-(1-(3-chloropyridin-2-yl)-3-(2,2,2-trifluoroethoxy)-1H-pyrazole-5-carboxamido)-N,5-dimethylpyrazolo[1,5-a]pyridine-7-carboxamide] | > 70% | > 70% | > 70%
CCNC(=O)c1c(NC(=O)c2cc(OCC(F)(F)F)nn2-c2ncccc2Cl)c(C)cc2ccnn12 [Compound 10, 6-(1-(3-chloropyridin-2-yl)-3-(2,2,2-trifluoroethoxy)-1H-pyrazole-5-carboxamido)-N-ethyl-5-methylpyrazolo[1,5-a]pyridine-7-carboxamide] | > 70% | > 70% | > 70%
C=CCNC(=O)c1c(NC(=O)c2cc(C(F)(F)F)nn2-c2ncccc2Cl)c(C)cc2ccnn12 [Compound 64, N-allyl-6-(1-(3-chloropyridin-2-yl)-3-(trifluoromethyl)-1H-pyrazole-5-carboxamido)-5-methylpyrazolo[1,5-a]pyridine-7-carboxamide] | > 70% |  | > 70%
CCCNC(=O)c1c(NC(=O)c2cc(C(F)(F)F)nn2-c2ncccc2Cl)c(C)cc2ccnn12 [Compound 92, 6-(1-(3-chloropyridin-2-yl)-3-(trifluoromethyl)-1H-pyrazole-5-carboxamido)-5-methyl-N-propylpyrazolo[1,5-a]pyridine-7-carboxamide] | > 70% |  | > 70%
CC(C)NC(=O)c1c(NC(=O)c2cc(C(F)(F)F)nn2-c2ncccc2Cl)c(Br)cc2ccnn12 [Compound 107, 5-bromo-6-(1-(3-chloropyridin-2-yl)-3-(trifluoromethyl)-1H-pyrazole-5-carboxamido)-N-isopropylpyrazolo[1,5-a]pyridine-7-carboxamide] | > 70% |  | > 70%
Cc1cc2ccnn2c(C(=O)NC(C)C2CC2)c1NC(=O)c1cc(OCC(F)(F)F)nn1-c1ncccc1Cl (stereo not drawn) [Compound 121, 6-(1-(3-chloropyridin-2-yl)-3-(2,2,2-trifluoroethoxy)-1H-pyrazole-5-carboxamido)-N-(1-cyclopropylethyl)-5-methylpyrazolo[1,5-a]pyridine-7-carboxamide] | > 70% |  | > 70%
COc1cc(C(=O)Nc2c(Cl)cc3ccnn3c2C(=O)NC(C)(C)C)n(-c2ncccc2Cl)n1 [Compound 136, N-(tert-butyl)-5-chloro-6-(1-(3-chloropyridin-2-yl)-3-methoxy-1H-pyrazole-5-carboxamido)pyrazolo[1,5-a]pyridine-7-carboxamide] | > 70% |  | > 70%
Cc1cc2ccnn2c(C(=O)NC(C)C2CC2)c1NC(=O)c1cc(OC2CSC2)nn1-c1ncccc1Cl (stereo not drawn) [Compound 146, 6-(1-(3-chloropyridin-2-yl)-3-(thietan-3-yloxy)-1H-pyrazole-5-carboxamido)-N-(1-cyclopropylethyl)-5-methylpyrazolo[1,5-a]pyridine-7-carboxamide] | > 70% |  | > 70%
Cc1cc2ccnn2c(C(=O)NC2CC2)c1NC(=O)c1cc(Cn2nnc(C(F)(F)F)n2)nn1-c1ncccc1Cl [Compound 168, 6-(1-(3-chloropyridin-2-yl)-3-((5-(trifluoromethyl)-2H-tetrazol-2-yl)methyl)-1H-pyrazole-5-carboxamido)-N-cyclopropyl-5-methylpyrazolo[1,5-a]pyridine-7-carboxamide] | > 70% |  | > 70%
Cc1cc2ccnn2c(C(=O)NC(C)C2CC2)c1NC(=O)c1cc(Cn2nnc(C(F)(F)F)n2)nn1-c1ncccc1Cl (stereo not drawn) [Compound 169, 6-(1-(3-chloropyridin-2-yl)-3-((5-(trifluoromethyl)-2H-tetrazol-2-yl)methyl)-1H-pyrazole-5-carboxamido)-N-(1-cyclopropylethyl)-5-methylpyrazolo[1,5-a]pyridine-7-carboxamide] | > 70% |  | > 70%
Cc1cc2ccnn2c(C(=O)NC2(C#N)CC2)c1NC(=O)c1cc(Br)nn1-c1ncccc1Cl [Compound 216, 6-(3-bromo-1-(3-chloropyridin-2-yl)-1H-pyrazole-5-carboxamido)-N-(1-cyanocyclopropyl)-5-methylpyrazolo[1,5-a]pyridine-7-carboxamide] | > 70% | > 70% | 
